Measured values reported in patent US11352322B2, “Cyclopropyl-amide compounds as dual LSD1/HDAC inhibitors” (Jubilant Epicore LLC, priority 2016, dated 2022).
Where a name gives a salt, the structure may show the parent alone. Read-outs that look alike come from different tables or passages of the source.

Key:
[1] = Metabolic stability in liver microsomes, MLM; details: 1 μM, NADPH
Description: (§1) The microsomal suspension was prepared by adding liver microsomes to 100 mM potassium phosphate buffer (pH7.4) to give a final protein concentration of 0.5 mg/mL. The stock solution of NCE (10 mM in DMSO) was added to the microsomes to provide a final concentration of 1 μM. […] Samples were vortexed and centrifuged at 5,000 rpm for 10 min to remove proteins. Supernatant were analyzed on LC-MS/MS.

[2] = Metabolic stability in liver microsomes, HLM; details: 1 μM, NADPH
Description: as §1

[3] = system: MM1S; assay: Anticancer activity: Alamar Blue assay, MM1S; format: cell-based; details: Homo sapiens, MM1.S, read-out: MM1S EC50

SMILES | Metabolic stability MLM % remaining in 30 min [1] | Metabolic stability HLM % remaining in 30 min [2] | EC50 [3] | EC50 ([3]; MM1S cells)
O=C(/C=C/c1ccc(CNC2CC2c2ccc(C3CC3)cc2)cc1)NO (stereo not drawn) [Example 1, (E)-3(4(((2(4cyclopropylphenyl)cyclopropl)amino)methyl)phenyl)-N-hydroxyacrylamide] | 5% | 21% |  | 
O=C(/C=C/c1ccc(CNC2CC2c2ccc(F)cc2)cc1)NO (stereo not drawn) [Example 2, (E)-3-(4-{[2-(4-Fluoro-phenyl)-cyclopropylamino]-methyl}-phenyl)-N-hydroxy-acrylamide TFA Salt] | 19% | 41% |  | 
O=C(/C=C/c1ccc(CNC2CC2c2ccc(OCc3ccc(F)cc3)cc2)cc1)NO (stereo not drawn) [Example 3, (E)-3-(4-(((2-(4-((4-fluorobenzyl)oxy)phenyl)cyclopropyl)amino)methyl)phenyl)-N-hydroxyacrylamide TFA Salt] | < 5% | 65% | 104 nM | 
Cc1noc(C)c1-c1ccc(C2CC2NCc2ccc(/C=C/C(=O)NO)cc2)cc1 (stereo not drawn) [Example 6, (E)-3-(4-(((2-(4-(3,5-dimethylisoxazol-4-yl)phenyl)cyclopropyl)amino)methyl)phenyl)-N-hydroxyacrylamide TFA Salt] | < 5% | 44% | 34 nM | 
O=C(NO)c1cnc(N2CCC(NC3CC3c3ccccc3)CC2)nc1 (stereo not drawn) [Example 9, 2-[4-(2-Phenyl-cyclopropylamino)-piperidin-1-yl]-pyrimidine-5-carboxylic Acid Hydroxyamide TFA Salt] | 50% | 65% | 4 nM | 
O=C(NO)c1cnc(N2CCC(NC3CC3c3ccc(F)cc3)CC2)nc1 (stereo not drawn) [Example 10, 2-{4-[2-(4-Fluoro-phenyl)-cyclopropylamino]-piperidin-1-yl}-pyrimidine-5-carboxylic acid hydroxyamide TFA salt] | 55% | 81% | 9 nM | 
O=C(NO)c1cnc(N2CCC(CNC3CC3c3ccc(OCc4ccc(F)cc4)cc3)CC2)nc1 (stereo not drawn) [Example 11, 2-(4-(((2-(4-((4-fluorobenzyl)oxy)phenyl)cyclopropyl)amino)methyl)piperidin-1-yl)-N-hydroxypyrimidine-5-carboxamide TFA Salt] | 14% | 44% | 18 nM | 
O=C(NO)c1cnc(N2CCC(NC3CC3c3ccc(-c4ccc(Cl)cc4)cc3)CC2)nc1 (stereo not drawn) [Example 13, 2-(4-((2-(4′-chloro-[1,1′-biphenyl]-4-yl)cyclopropyl)amino)piperidin-1-yl)-N-hydroxypyrimidine-5-carboxamide TFA Salt] | 23% | 57% | 24 nM | 
O=C(NO)c1cnc(N2CCC(CNC3CC3c3ccc(-c4ccc(Cl)cc4)cc3)CC2)nc1 (stereo not drawn) [Example 14, 2-(4-(((2-(4′-chloro-[1,1′-biphenyl]-4-yl)cyclopropyl)amino)methyl)piperidin-1-yl)-N-hydroxypyrimidine-5-carboxamide TFA Salt] | 82% | 88% | 8 nM | 
Cc1noc(C)c1-c1ccc(C2CC2NCC2CCN(c3ncc(C(=O)NO)cn3)CC2)cc1 (stereo not drawn) [Example 16, 2-(4-(((2-(4-(3,5-dimethylisoxazol-4-yl)phenyl)cyclopropyl)amino)methyl)piperidin-1-yl)-N-hydroxypyrimidine-5-carboxamide TFA Salt] | 25% | 47% | 17 nM | 
O=C(NO)c1cnc(N2CCC(CNC3CC3c3ccc(-c4cncnc4)cc3)CC2)nc1 (stereo not drawn) [Example 17, N-hydroxy-2-(4-(((2-(4-(pyrimidin-5-yl)phenyl)cyclopropyl)amino)methyl)piperidin-1-yl)pyrimidine-5-carboxamide TFA Salt] | 57% | 69% | 17 nM | 
COc1ccc(C2CC2NCC2CCN(c3ncc(C(=O)NO)cn3)CC2)cc1 (stereo not drawn) [Example 18, N-hydroxy-2-(4-(((2-(4-methoxyphenyl)cyclopropyl)amino)methyl)piperidin-1-yl)pyrimidine-5-carboxamide TFA Salt] | 28% | 41% | 3 nM | 
COc1ccc(C2CC2NC2CCN(c3ncc(C(=O)NO)cn3)CC2)cc1 (stereo not drawn) [Example 19, N-hydroxy-2-(4-((2-(4-methoxyphenyl)cyclopropyl)amino)piperidin-1-yl)pyrimidine-5-carboxamide TFA Salt] | 71% | 83% | 7 nM | 
O=C(NO)c1cnc(N2CCn3cc(CNC4CC4c4ccccc4)nc3C2)nc1 (stereo not drawn) [Example 23, N-hydroxy-2-(2-(((2-phenylcyclopropyl)amino)methyl)-5,6-dihydroimidazo[1,2-a]pyrazin-7(8H)-yl)pyrimidine-5-carboxamide TFA Salt] | 85% | 95% | 11 nM | 
COc1ccc(C2CC2NCc2cn3c(n2)CN(c2ncc(C(=O)NO)cn2)CC3)cc1 (stereo not drawn) [Example 24, N-hydroxy-2-(2-(((2-(4-methoxyphenyl)cyclopropyl)amino)methyl)-5,6-dihydroimidazo[1,2-a]pyrazin-7(8H)-yl)pyrimidine-5-carboxamide TFA Salt] | 74% | 71% | 9 nM | 
O=C(NO)c1cnc(N2CCn3cc(CNC4CC4c4ccc(F)cc4)nc3C2)nc1 (stereo not drawn) [Example 25, 2-(2-(((2-(4-fluorophenyl)cyclopropyl)amino)methyl)-5,6-dihydroimidazo[1,2-a]pyrazin-7(8H)-yl)-N-hydroxypyrimidine-5-carboxamide TFA Salt] | 85% | 75% | 11 nM | 
O=C(NO)c1cccc(CNC2CC2c2ccc(Br)cc2)c1 (stereo not drawn) [Example 26, 3-(((2-(4-bromophenyl)cyclopropyl)amino)methyl)-N-hydroxybenzamide TFA Salt] | 13% | 30% |  | 
O=C(CCCCCNC1CC1c1ccccc1)NO (stereo not drawn) [Example 29, N-hydroxy-6-((2-phenylcyclopropyl)amino)hexanamide TFA Salt] | 90% | > 95% |  | 
O=C(NO)c1ccc(CCCNC2CC2c2ccc(F)cc2)cc1 (stereo not drawn) [Example 30, 4-(3-((2-(4-fluorophenyl)cyclopropyl)amino)propyl)-N-hydroxybenzamide TFA Salt] | 51% | 16% | 45 nM | 
O=C(CCCCCCNC(=O)c1ccc(CNC2CC2c2ccccc2)cc1)NO (stereo not drawn) [Example 31, N-(6-Hydroxycarbamoyl-hexyl)-4-[(2-phenyl-cyclopropylamino)-methyl]-benzamide TFA Salt] | 18% | 39% |  | 
O=C(CCCCCCNC(=O)c1ccc(CNC2CC2c2ccc(F)cc2)cc1)NO (stereo not drawn) [Example 32, 4-(((2-(4-fluorophenyl)cyclopropyl)amino)methyl)-N-(7-(hydroxyamino)-7-oxoheptyl)benzamide TFA Salt] | 22% | 41% | 17 nM | 
O=C(NO)c1ccc(CN2CCC(CNC3CC3c3ccccc3)CC2)cc1 (stereo not drawn) [Example 36, N-Hydroxy-4-{4-[(2-phenyl-cyclopropylamino)-methyl]-piperidin-1-ylmethyl}-benzamide TFA Salt] | 53% | 63% |  | 
O=C(NO)c1ccc(CCCN2CCC(CNC3CC3c3cccc(F)c3)CC2)cc1 (stereo not drawn) [Example 49, 4-(3-(4-(((2-(3-fluorophenyl)cyclopropyl)amino)methyl)piperidin-1-yl)propyl)-N-hydroxybenzamide TFA Salt] | 34% | 48% | 62 nM | 
Cc1noc(C)c1-c1ccc(C2CC2NCC2CN(CCCc3cccc(C(=O)NO)c3)C2)cc1 (stereo not drawn) [Example 65, 3-(3-(3-(((2-(4-(3,5-dimethylisoxazol-4-yl)phenyl)cyclopropyl)amino)methyl)azetidin-1-yl)propyl)-N-hydroxybenzamide TFA Salt] |  |  |  | 26 nM
O=C(NO)c1ccc(CCCN2CCc3cc(CNC4CC4c4ccc(F)cc4)ccc3C2)cc1 (stereo not drawn) [Example 78, 4-(3-(6-(((2-(4-fluorophenyl)cyclopropyl)amino)methyl)-3,4-dihydroisoquinolin-2(1H)-yl)propyl)-N-hydroxybenzamide TFA Salt] | 32% | 72% |  | 
Nc1ccccc1NC(=O)/C=C/c1ccc(CNC2CC2c2ccc(F)cc2)cc1 (stereo not drawn) [Example 120] | 16% | 27% |  | 
Nc1ccccc1NC(=O)c1ccc(CCCN2CCC(CNC3CC3c3ccc(C(=O)N4CCCCC4)cc3)CC2)cc1 (stereo not drawn) [Example 125, N-(2-aminophenyl)-4-(3-(4-(((2-(4-(piperidine-1-carbonyl)phenyl)cyclopropyl)amino)methyl)piperidin-1-yl)propyl)benzamide TFA Salt] | 49% | 34% |  | 
Nc1ccccc1NC(=O)c1ccc(CCCN2CC(CNC3CC3c3ccc(F)cc3)C2)cc1 (stereo not drawn) [Example 126, N-(2-aminophenyl)-4-(3-(3-(((2-(4-fluorophenyl)cyclopropyl)amino)methyl)azetidin-1-yl)propyl)benzamide TFA Salt] | 76% | 79% |  | 
